The values that follow come from patent US20100035941A1, “METHODS FOR INCREASING BLOOD FLOW AND/OR PROMOTING TISSUE REGENERATION” (priority 2006, published 2010).

The test system of assay [1] is circulating CD34+ progenitor/stem cells. As to conditions: Phase 1 study; single dose of 80 μg/kg; 6 hour time point; cited from earlier work.
In assay [2] the test system is nucleated cells per ml of blood. As to conditions: average of 5 donors, s.c. 80 μg/kg. The method, then:
Five healthy human volunteers having initial white blood cell counts of 4,500-7,500 cells/mm^3 were used in the study. […] Blood samples were obtained via catheter prior to the dose, and at various times up to 24 hours after dosing.
All progenitor cell results are based on the scoring of 3 culture plates per assay per point.

The test system of a further assay is bone marrow stem cells. The note with it: rats; coronary ligation; injected within 4 to 6 hours, with or without rhG-CSF.
The test system of another assay is WBC. As to conditions: Phase 1 study; single dose of 80 μg/kg; cited from earlier work.

Molecules are shown by their SMILES. Where two headings read alike, the source gives them in different places.

Method for bone marrow stem cells: Adult rats are anesthetized and a thoracotomy is performed. The descending branch of the left coronary artery is ligated and not reperfused. […] Control rats are not treated with the reagents. The animals are monitored at one-week intervals by echocardiography and MRI. The experiment is terminated at 2, 6 to 12 weeks post-surgery. On the day of sacrifice, the hemodynamic functions are analyzed for left ventricle-end diastolic pressure, left ventricle-developed pressure and the rate of rise and fall of left ventricle pressure. The heart is then arrested in diastole and perfused via the abdominal aorta to flush residual blood from the vascular network of the myocardium. This is followed by perfusion of the heart with 10% formalin. Several slices are made through the fixed heart and these are embedded in paraffin and sections. The sections are stained and analyzed by light microscopy to determine the size of the infarct in the treated and control animals. Tissue sections from hearts taken at 2 weeks after surgery are stained with antibodies specific for immature, developing myocyte and blood vessel proteins and analyzed by confocal microscopy. The immunohistochemical analysis involves the identification of transcription factors and surface markers expressed in early stages of myocyte development.

`c1cc(CN2CCCNCCNCCCNCC2)ccc1CN1CCCNCCNCCCNCC1` [AMD3100, 1,1′-[1,4-phenylene-bis(methylene)]-bis-1,4,8,11-tetraazacyclotetradecane]: the “peak increase in circulating CD34+ progenitor/stem cells” value in assay [1] was 6 fold. Also, the “Fold Change Compared to TIME = 0, nucleated cellularity PBL-LD, MEAN” value in assay [2] (T = 1 hour) came to 1.86; in assay [2] (T = 3 hours) it was 2.86; in assay [2] (T = 6 hours), 3.66; in assay [2] (T = 9 hours), 3.64; in assay [2] (T = 24 hours), 1.05. Besides, the “Fold Change Compared to TIME = 0, nucleated cellularity PBL-US, MEAN” value in assay [2] (T = 1 hour) amounted to 1.69; in assay [2] (T = 3 hours) it was 2.80; in assay [2] (T = 6 hours), 3.26; in assay [2] (T = 9 hours), 3.09; in assay [2] (T = 24 hours), 1.07. Further, the “nucleated cellularity PBL-LD, % CHG” value in assay [2] (T = 1 hour) worked out at 86.2%; in assay [2] (T = 3 hours), 185.6%; in assay [2] (T = 6 hours), 266.3%; in assay [2] (T = 9 hours), 264.3%; in assay [2] (T = 24 hours) it was 4.6%. Further, the “nucleated cellularity PBL-US, % CHG” value in assay [2] (T = 1 hour) was 68.6%; in assay [2] (T = 3 hours), 180.2%; in assay [2] (T = 6 hours) it was 225.8%; in assay [2] (T = 9 hours), 209.4%; in assay [2] (T = 24 hours), 7.0%. In the assay with bone marrow stem cells, the “expected effect on ischemic myocardium” value is listed as “will lead to regeneration of the dead myocardium”. Also, the WBC count in the assay with WBC is given as 17,000 /μl.
